Measurements reported in PubChem BioAssay (NCI).
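Following 48 hours of exposure in 96-well plates, responses at five concentrations were used to interpolate endpoints linearly. TGI marks complete inhibition of growth.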

Experiments:
Experiment in all cases: growth of human tumour cells (NCI), 48 h
A498 renal = system: A498 renal
CCRF-CEM leukemia = system: CCRF-CEM leukemia
COLO 205 colon = system: COLO 205 colon
HOP-62 NSCLC = system: HOP-62 NSCLC
M14 melanoma = system: M14 melanoma
MALME-3M melanoma = system: MALME-3M melanoma
MDA-MB-435 = system: MDA-MB-435
MOLT-4 leukemia = system: MOLT-4 leukemia
NCI-H460 lung = system: NCI-H460 lung
OVCAR-8 ovarian = system: OVCAR-8 ovarian
PC-3 prostate = system: PC-3 prostate
SK-MEL-2 melanoma = system: SK-MEL-2 melanoma
SK-MEL-5 melanoma = system: SK-MEL-5 melanoma
SN12C renal = system: SN12C renal
SNB-75 CNS = system: SNB-75 CNS
SW-620 colon = system: SW-620 colon
UACC-257 melanoma = system: UACC-257 melanoma
UO-31 renal = system: UO-31 renal
K-562 leukemia = system: K-562 leukemia
SF-539 CNS = system: SF-539 CNS

SMILES	TGI (A498 renal)	TGI (CCRF-CEM leukemia)	TGI (COLO 205 colon)	TGI (HOP-62 NSCLC)	TGI (M14 melanoma)	TGI (MALME-3M melanoma)	TGI (MDA-MB-435)	TGI (MOLT-4 leukemia)	TGI (NCI-H460 lung)	TGI (OVCAR-8 ovarian)	TGI (PC-3 prostate)	TGI (SK-MEL-2 melanoma)	TGI (SK-MEL-5 melanoma)	TGI (SN12C renal)	TGI (SNB-75 CNS)	TGI (SW-620 colon)	TGI (UACC-257 melanoma)	TGI (UO-31 renal)	TGI (K-562 leukemia)	TGI (SF-539 CNS)
CCCCSC1=N/C(=C\c2ccco2)C(Cl)=N1	> 100 µM	> 100 µM	> 100 µM	> 100 µM	> 100 µM	> 100 µM	> 100 µM	> 100 µM	> 100 µM	> 100 µM	> 100 µM	> 100 µM	> 100 µM	> 100 µM	> 100 µM	> 100 µM	> 100 µM	> 100 µM		
CC(=O)O[C@H]1CCC2[C@@H]3CCC4Nc5oncc5C[C@]4(C)C3CC[C@@]21C (stereo partly drawn)	> 10 µM	> 10 µM	> 10 µM	> 10 µM	> 10 µM	> 10 µM	> 10 µM	> 10 µM	> 10 µM	> 10 µM	> 10 µM	> 10 µM	> 10 µM	> 10 µM		> 10 µM	> 10 µM	> 10 µM	> 10 µM	9.84 µM
N#Cc1[nH]c(=S)[nH]c1N	> 100 µM	> 100 µM	> 100 µM	> 100 µM		> 100 µM	> 100 µM		> 100 µM	> 100 µM	> 100 µM	> 100 µM	> 100 µM	> 100 µM	> 100 µM	> 100 µM	> 100 µM	> 100 µM	> 100 µM	> 100 µM
COC(=O)C1(C(=O)OC)C/C(C)=C(/C)SCCCS1		> 100 µM	> 100 µM	> 100 µM	> 100 µM	> 100 µM	> 100 µM	> 100 µM	> 100 µM	> 100 µM	> 100 µM	> 100 µM	> 100 µM	> 100 µM	> 100 µM	> 100 µM	> 100 µM	> 100 µM	> 100 µM	> 100 µM
[N-]=[N+]=Nc1cc(=O)n2c3c(cccc13)CCC2	> 100 µM	> 100 µM	> 100 µM	> 100 µM	> 100 µM	> 100 µM	> 100 µM	> 100 µM	> 100 µM	> 100 µM	> 100 µM			> 100 µM	> 100 µM	> 100 µM	> 100 µM	> 100 µM	> 100 µM	> 100 µM
Cc1nc2ccc(NC(=S)Nc3ccccc3)cc2c(=O)n1-c1ccccc1	> 100 µM		> 100 µM	> 100 µM		> 100 µM	> 100 µM	> 100 µM	> 100 µM	> 100 µM	> 100 µM	> 100 µM	> 100 µM	> 100 µM	> 100 µM	> 100 µM	> 100 µM	> 100 µM	> 100 µM	
CN(C)CCNC(=O)c1ccc2nc3c(nc2c1)C(=O)c1ccccc1-3	> 100 µM	39.3 µM	> 100 µM	> 100 µM	> 100 µM	82.3 µM	48.2 µM	52.6 µM	38.6 µM	> 100 µM	> 100 µM		32.1 µM	> 100 µM	> 100 µM	> 100 µM	> 100 µM	> 100 µM		> 100 µM
S=C1SSC2N=CC=CC12 (stereo not drawn)	> 100 µM	71.1 µM	> 100 µM		> 100 µM	> 100 µM	31.8 µM	> 100 µM	> 100 µM	> 100 µM	> 100 µM	> 100 µM	> 100 µM	> 100 µM	> 100 µM	> 100 µM	> 100 µM	> 100 µM	> 100 µM	> 100 µM
O=C1/C(=C/c2cccc(Br)c2)Cc2ccccc21		> 100 µM	89.7 µM	> 100 µM	> 100 µM	> 100 µM	> 100 µM	> 100 µM	> 100 µM	> 100 µM	> 100 µM	> 100 µM		> 100 µM	> 100 µM	> 100 µM	> 100 µM	> 100 µM	> 100 µM	> 100 µM
CC1=NC(=Cc2cc(Br)cc(Br)c2)C(=O)N1n1c(-c2ccccc2)nc2ccccc2c1=O		> 100 µM	> 100 µM	> 100 µM	> 100 µM	> 100 µM	> 100 µM	> 100 µM	> 100 µM	> 100 µM	> 100 µM	> 100 µM	> 100 µM	> 100 µM	> 100 µM	> 100 µM	> 100 µM	> 100 µM	> 100 µM	> 100 µM
Cn1c(=O)oc2cc(C(O)CN3CCN(Cc4ccccn4)CC3)c(Cl)cc21 (stereo not drawn)	> 100 µM	> 100 µM	> 100 µM	> 100 µM	> 100 µM	> 100 µM	> 100 µM	> 100 µM	> 100 µM	> 100 µM	> 100 µM			> 100 µM	> 100 µM	> 100 µM	> 100 µM	> 100 µM	> 100 µM	> 100 µM
c1ccc(NN=C(c2ccccn2)c2ccccn2)nc1	7.11 µM		> 100 µM			26.1 µM	> 100 µM		> 100 µM	> 100 µM	> 100 µM	> 100 µM	> 100 µM	> 100 µM	> 100 µM	> 100 µM	> 100 µM	0.513 µM	> 100 µM	> 47.5 µM
Cc1cc(C2CC(O)C(CO)O2)c(F)cc1F (stereo not drawn)	> 100 µM	> 100 µM	> 100 µM	> 100 µM	> 100 µM	> 100 µM	> 100 µM	> 100 µM	> 100 µM	> 100 µM	> 100 µM			> 100 µM	> 100 µM	> 100 µM	> 100 µM	> 100 µM	> 100 µM	> 100 µM
O=[N+]([O-])/C(C(Cl)=C(Cl)Cl)=C(/Nc1ccccc1)SCc1ccccc1	46.7 µM	35.5 µM	42.4 µM	36.1 µM	30.6 µM	30.1 µM	31.7 µM	37.3 µM	42.8 µM	34.8 µM	49.4 µM	44.7 µM	37 µM	44.2 µM		49 µM	39.5 µM	39 µM	49.9 µM	38.8 µM
COC(=O)c1c(C#N)[nH]c(-c2ccsc2)c1C(=O)OC	> 100 µM	> 100 µM	> 100 µM	> 100 µM	> 100 µM	> 100 µM	> 100 µM	> 100 µM		> 100 µM	> 100 µM	> 100 µM	> 100 µM	> 100 µM	> 100 µM	> 100 µM	> 100 µM	> 100 µM	> 100 µM	
CC(C)CC(NC(=O)C(CI)Cc1ccccc1)C(=O)Nc1ccccc1 (stereo not drawn)	> 100 µM	> 100 µM	> 100 µM		> 100 µM	> 100 µM	> 100 µM	> 100 µM	> 100 µM	> 100 µM	> 100 µM	> 100 µM	> 100 µM	> 100 µM	> 100 µM	> 100 µM	> 100 µM	> 100 µM	> 100 µM	> 100 µM
C=C(C(=O)O)[C@@H]1C[C@@H](OC(C)=O)[C@]2(C)CC/C=C(\C)CCC[C@H](C)[C@H](O)[C@@H]1O2	> 100 µM	73.4 µM	> 100 µM		> 100 µM	> 100 µM	59.1 µM	72.1 µM	> 100 µM	> 100 µM	> 100 µM	> 100 µM	> 100 µM	> 100 µM	> 100 µM	> 100 µM	> 100 µM		> 100 µM	35.7 µM
Cc1nn(C(=O)c2ccc(Cl)cc2)c2c1C(/C=C/c1ccccc1)SC(N)=N2 (stereo not drawn)		> 10 µM	> 10 µM	> 10 µM	> 10 µM	> 10 µM	> 10 µM	> 10 µM	> 10 µM	> 10 µM	> 10 µM	> 10 µM	> 10 µM	> 10 µM	> 10 µM	> 10 µM	> 10 µM		> 10 µM	> 10 µM
N#CC1=C(Nc2ccccc2)SC=C(c2ccccc2)NC1=NCc1ccccc1	> 100 µM		> 100 µM	> 100 µM	> 100 µM	> 100 µM	> 100 µM	> 100 µM		> 100 µM	> 100 µM	> 100 µM	> 100 µM	> 100 µM		> 100 µM		> 100 µM	97.6 µM	> 100 µM
O=C1c2cccc3cccc(c23)C2NCCCN12 (stereo not drawn)	> 100 µM	> 100 µM	> 100 µM	> 100 µM	> 100 µM	> 100 µM	> 100 µM	> 100 µM	> 100 µM	> 100 µM	> 100 µM		> 100 µM	> 100 µM	89.5 µM	> 100 µM	> 100 µM	> 100 µM	> 100 µM	
CC(CO)CCNc1ncnc2c1ncn2CCC(=O)OC(C)(C)C (stereo not drawn)	> 100 µM	> 100 µM	> 100 µM	> 100 µM	> 100 µM	> 100 µM	> 100 µM	> 100 µM	> 100 µM	> 100 µM	> 100 µM		> 100 µM	> 100 µM	> 100 µM	> 100 µM	> 100 µM	> 100 µM	> 100 µM	> 100 µM
COc1ccc(C2OC(N)=C(C#N)C3=C2CCCC3C)cc1OC (stereo not drawn)	> 100 µM	> 100 µM	> 100 µM		> 100 µM	> 100 µM	> 100 µM	> 100 µM	> 100 µM	> 100 µM	> 100 µM	> 100 µM	> 100 µM	> 100 µM	> 100 µM	> 100 µM	> 100 µM	> 100 µM	> 100 µM	> 100 µM
CC(C)N(C(=O)C1(O)c2ccccc2C=Cc2ccccc21)C(C)C	29.8 µM		33.4 µM	35.6 µM	40.1 µM	31.5 µM	> 100 µM	82.8 µM		30.5 µM	28.9 µM	30.7 µM	29.8 µM	31.4 µM		31.3 µM		40.1 µM		33.4 µM
COC1=CC2C(c3cc4ccccc4n3S(=O)(=O)c3ccccc3)CC1CN2C(=O)OCc1ccccc1 (stereo not drawn)		> 100 µM	31.2 µM	> 100 µM	51.2 µM	61 µM	75.9 µM		> 100 µM	> 100 µM	> 100 µM	54.2 µM	58.9 µM	> 100 µM	33.7 µM	> 100 µM	> 100 µM	> 100 µM	76.5 µM	
[N-]=[N+]=Nc1cc(=O)[nH]nc1-c1ccccc1	> 100 µM	> 100 µM	> 100 µM	> 100 µM	> 100 µM	> 100 µM	> 100 µM	> 100 µM	> 100 µM	> 100 µM	> 100 µM			> 100 µM	> 100 µM	> 100 µM	> 100 µM	> 100 µM	> 100 µM	> 100 µM
CC1=CCC(C)=Nc2nc3ccccc3n21	> 100 µM	> 100 µM	> 100 µM	> 100 µM	> 100 µM	> 100 µM	> 100 µM	> 100 µM	> 100 µM	> 100 µM	> 100 µM	> 100 µM	> 100 µM	> 100 µM		> 100 µM	> 100 µM	58.9 µM	> 100 µM	> 100 µM
